Measured values from patent publication EP0173527A2, “Insulin-selective somatostatin analogs” (THE SALK INSTITUTE FOR BIOLOGICAL STUDIES, priority 1984, dated 1986).
Entries after “also recorded” stand apart in the source; their conditions may differ. Positions of bridges follow the written chain, without caps; N, C: chain ends.

Assays:
[1] = synthetic SS-28; Pradayrol et al., FEBS Letters 109, 1980; cited from earlier work
[2] = tested on: cells of rat pituitary glands; assay: in vitro radioimmunoassay of growth hormone release from cultured rat pituitary cells, side-by-side comparison with somatostatin-14; assay type: cell-based; conditions: for biological activity / potency: comparative in vitro testing, compared with aSS-28
Protocol: To determine the effectiveness of the peptides to inhibit the release of […], in vitro radioimmunoassays are carried out using aSS-28, [Lys^23]-aSS-28 and aSS(15-28) in side-by-side comparison with equimolar concentrations of somotostatin-14 having a known effectiveness to inhibit the release of growth hormone induced by the application of isobutyl methyl xanthine to pituitary cells. Cultures are used which include cells of rat pituitary glands removed some four to five days previously in a system that minimizes enzymatic degradation, generally following the procedure set forth in Vale et al., Methods in Enzymology, Hormones and Cyclic Nucleotides (1975) Vol. 37, p. 82. Both cultures of a defined standard medium and cultures which are considered optimal for the secretion of growth hormone, as a result of having additions of either 2% or 10% of serum from a foetal calf, are used for the comparative testing.

[3] = tested on: secretion of glucagon and insulin; assay: in vivo inhibition of insulin (and glucagon) secretion, potency relative to somatostatin-14; design: species or system rats; conditions: basal and stimulated insulin secretion in mammals, including humans and dogs; compared with somatostatin-14 and somatostatin-28
Protocol: In vivo experiments are carried out with aSS-28, using the procedure described in Brown et al., Metabolism (1976) Vol. 25, pp. 1501-1503, to determine the potency, relative to somatostatin-14, to inhibit the secretion of glucagon and insulin stimulated by the administration of arginine to groups of rats.

H-Ser-Ala-Asn-Ser-Asn-Pro-Ala-Met-Ala-Pro-Arg-Glu-Arg-Lys-Ala-Gly-Cys-Lys-Asn-Phe-Phe-Trp-Lys-Thr-Phe-Thr-Ser-Cys-OH [SS-28]
potency when administered in vivo [1]: increased potency

H-Ala-Gly-Cys-Lys-Asn-Phe-Tyr-Trp-Hyl-Gly-Phe-Thr-Ser-Cys-OH [aSS(15-28)]
biological activity / potency [2]: similarly biologically active although having somewhat lower potencies

H-Ser-Val-Asp-Ser-Thr-Asn-Asn-Leu-Pro-Pro-Arg-Glu-Arg-Lys-Ala-Gly-Cys-Lys-Asn-Phe-Tyr-Trp-Hyl-Gly-Phe-Thr-Ser-Cys-OH [aSS-28]
insulin-selectivity ([2]; inferred from GH inhibition compared with SS-14): likely insulin-selective; also recorded: extreme insulin-selectivity
inhibition of GH ([2]; release of growth hormone induced by isobutyl methyl xanthine, compared with equimolar SS-14): substantially less than SS-14
potency to inhibit insulin secretion [3]: increased potency; also recorded: more potent than either somatostatin-14 or somatostatin-28

H-Ser-Val-Asp-Ser-Thr-Asn-Asn-Leu-Pro-Pro-Arg-Glu-Arg-Lys-Ala-Gly-Cys-Lys- Asn-Phe-Tyr-Trp-Lys-Gly-Phe-Thr-Ser-Cys-OH (H-SVDSTNNLPPRERKAGCKNFYWKGFTSC-OH; disulfide 17-28 (inferred); ends not checked) [[Lys 23]-aSS-28]
biological activity / potency [2]: similarly biologically active although having somewhat lower potencies
